The results in this text go back to patent US20230398586A1, “METHOD FOR DECOMPOSING PLANT MATTER” (DANSTAR FERMENT AG, priority 2020, published 2023).

What all share (format): in vivo
The test system of assay [1] is apple tree leaves on the orchard floor. In words: Visual in-field leaf degradation rating per grid, first trial. An excerpt:
The objective of this trial was to establish the potential of soluble yeast cell wall derivatives to accelerate degradation of apple tree leaves on the orchard floor thereby reducing overwintering potential of apple scab (Venturia inaequalis).
(§1) At 95% leaf drop, two populations of autumn leaves were collected: 1) yellow leaves (yellow leaves ready to fall; harvested from the treatment trees and placed into wire grids; and 2) brown leaves (brown leaves which have fallen but not yet showing visible degradation collected from the orchard floor and placed into wire grids).
(§2) The following treatments were tested: 1) untreated control (no application); 2) water control (1000 L water per hectare); 3) urea ([…] per 1000 L per hectare); and 4) soluble yeast cell wall derivatives (Lallemand) (5 kg dry matter/ha; 10 L/ha in 1000 L water per hectare).
(§3) Treatments were applied to the soil using a non-mechanised back pack sprayer as applicator, in a one meter radius around the tree stem (grids were placed within this circumference).
(§4) Treatment application times: 1) 95% leaf drop; 2) 95% leaf drop+two weeks; and 3) 95% leaf drop+four weeks.
All evaluations were done separately on each of the two leaf populations selected at the start of the trial.
Leaf degradation according to a 0-9 scale, on a per grid estimate, reflecting the surface area which has decomposed; with “0” representing no degradation, “3” being approx. 30% degradation, “6” representing 60% degradation, and “9” complete degradation. […]

For assay [2] the test system is unchanged. In words: Leaf area degradation by leaf area scanner, first trial. The settings on record: for Average leaf area reduction: leaf area scanning method. As to the method:
as §1, §2, §3, §4
Leaf degradation was expressed as the reduction in leaf area (mm^2) based on readings taken with a leaf area scanner (LI-COR, LI-3050C Transparent Belt Conveyor). Samples were placed onto a transparent conveyor belt which allowed the leaf to pass through the scanning head. The accumulated leaf area was determined by passing all leaves of a grid through the scanner and subsequently an average per leaf area (mm 2).

The test system of assay [3] is Venturia inaequalis ascospores. In words: Ascospore projection from overwintered leaves (Kollar waterbath protocol). The settings on record: M2: one application at 50 kg/ha (30% fallen leaves); untreated control 139. As to the method: The objective of this trial was to evaluate the efficacy of the soluble yeast cell wall derivatives on their ability to reduce the apple scab inoculum (i.e. ascospores) on overwintering leaves.
The trial was carried out on a “Gala” apple variety in an orchard severely affected by apple scab.
The following treatments were tested: M1: untreated control; M2: urea, one application at […]: soluble yeast cell wall derivatives (Lallemand), one application at 5 l/ha (30% fallen leaves); M4: soluble yeast cell wall derivatives, one application at 10 l/ha (30% fallen leaves); M5: soluble yeast cell wall derivatives, two applications at 10 l/ha (first application at beginning of leaf drop and second application at 30% fallen leaves). Each treatment had three replicates.
One batch of 100 g of leaves per replication was placed in plastic mesh bags with fine mesh on the outdoor ground, in orchard conditions. Treatments were applied in November to the trees using a backpack sprayer (SOLO) at a volume of 1000 L/ha. […]
The ascospore projection of Venturia inaequalis was evaluated in March. […]
All meteorological records came from the SudAgroMétéo station on the SudExpé Marsillargues site. […] The results were analyzed using a one-way ANOVA and multiple comparisons of the mean were analysed using a Tukey post-hoc test at 5% threshold. […]

Where [4] appears, read: brown leaves, 4 weeks after the last application.
[5] abbreviates: brown leaves, 8 weeks after the last application.
[6] abbreviates: brown leaves, 10 weeks after the last application.
The mark [7] stands for this setting: yellow leaves, 6 weeks after the last application.
Setting [8] is: yellow leaves, 8 weeks after the last application.
Setting [9] is: yellow leaves, 10 weeks after the last application.

`NC(N)=O` [urea]: the “Average leaf degradation score in the sampling grids, degradation category (scale 0-9)” value in assay [1] (setting [4]) was determined as 1.0; in assay [1] (brown leaves, 6 weeks after the last application), 2.2 ab; in assay [1] (setting [5]), 3.2 ab; in assay [1] (setting [6]), 4.3 ab; in assay [1] (brown leaves, 12 weeks after the last application) it was 5.7 ab; in assay [1] (yellow leaves, 4 weeks after the last application) it was 1.3a. For the same molecule, the “Average leaf degradation score in the sampling grids, degradation category (scale 0-9)” value in assay [1] (setting [7]) turned out to be 2.5a; in assay [1] (setting [8]), 3.2a; in assay [1] (setting [9]) it was 3.8 a; in assay [1] (yellow leaves, 12 weeks after the last application), 5.3ab. The “percentage by which leaf degradation of a treatment exceeded the water control” value was “(+43%)” in assay [1] (setting [4]); “(+60%)” in assay [1] (setting [5]); “(+34%)” in assay [1] (setting [6]); “(+39%)” in assay [1] (setting [7]); “(+14%)” in assay [1] (setting [8]); “(+9%)” in assay [1] (setting [9]). In addition, the leaf degradation reached in assay [1] (first trial, 12 weeks after the last application, cold weather, lack of rains) is given as at most 50%. Besides, the “Leaf area reduction relative to the water control” value was “(+52%)” in assay [2] (brown leaves) and “(+10%)” in assay [2] (yellow leaves). Besides, the “Average leaf area reduction” value in assay [2] (brown leaves) is on record as 14.1 bc mm^2; in assay [2] (yellow leaves), 15.0 abc mm^2. Besides, in assay [3], the “Average concentration of apple scab ascospores discharged in the overwintered leaves” value is listed as 39 ascospores/μl.
